In paper PMC3003779 (Chemistry & biology, 2010):

How the values were obtained:
SHR and WKY rats [1] = assay: hemodynamic analysis with pressure-volume microcatheter; type: in vivo, rat; settings: 1 mg/kg i.v., 20 min
[2] = system: brain anandamide and 2-AG levels; assay: brain endocannabinoid levels by LC/MS; settings: SHR and WKY, bolus i.p. doses, 1 h
FAAH [3] = molecular target: T1, FAAH (Mus musculus, UniProt O08914); assay: in vivo; type: in vivo
T1 sequence (O08914 1-579): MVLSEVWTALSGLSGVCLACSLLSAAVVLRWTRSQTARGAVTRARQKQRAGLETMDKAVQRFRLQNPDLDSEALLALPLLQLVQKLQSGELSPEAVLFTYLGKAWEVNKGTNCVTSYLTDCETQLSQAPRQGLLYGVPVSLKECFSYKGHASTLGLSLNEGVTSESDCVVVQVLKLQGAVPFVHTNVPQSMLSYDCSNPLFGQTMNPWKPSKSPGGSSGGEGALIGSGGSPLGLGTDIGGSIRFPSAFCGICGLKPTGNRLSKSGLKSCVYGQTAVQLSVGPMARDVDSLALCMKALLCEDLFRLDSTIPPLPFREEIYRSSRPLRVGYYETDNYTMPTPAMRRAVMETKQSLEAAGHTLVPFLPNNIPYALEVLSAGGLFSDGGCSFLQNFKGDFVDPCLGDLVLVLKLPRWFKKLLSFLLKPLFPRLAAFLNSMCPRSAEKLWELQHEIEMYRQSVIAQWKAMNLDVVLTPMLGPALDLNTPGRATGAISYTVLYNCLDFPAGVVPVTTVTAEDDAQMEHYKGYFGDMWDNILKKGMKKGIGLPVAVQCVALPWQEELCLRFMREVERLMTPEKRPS

[4] = system: anandamide levels in hepatocytes; assay: anandamide levels in hepatocytes; type: cell-based, mouse; settings: 100 nM, dense suspension 40 mg/mL
human recombinant FAAH = molecular target: T2, human recombinant FAAH (Homo sapiens, UniProt O00519); assay: biochemical
T2 sequence (O00519 1-579): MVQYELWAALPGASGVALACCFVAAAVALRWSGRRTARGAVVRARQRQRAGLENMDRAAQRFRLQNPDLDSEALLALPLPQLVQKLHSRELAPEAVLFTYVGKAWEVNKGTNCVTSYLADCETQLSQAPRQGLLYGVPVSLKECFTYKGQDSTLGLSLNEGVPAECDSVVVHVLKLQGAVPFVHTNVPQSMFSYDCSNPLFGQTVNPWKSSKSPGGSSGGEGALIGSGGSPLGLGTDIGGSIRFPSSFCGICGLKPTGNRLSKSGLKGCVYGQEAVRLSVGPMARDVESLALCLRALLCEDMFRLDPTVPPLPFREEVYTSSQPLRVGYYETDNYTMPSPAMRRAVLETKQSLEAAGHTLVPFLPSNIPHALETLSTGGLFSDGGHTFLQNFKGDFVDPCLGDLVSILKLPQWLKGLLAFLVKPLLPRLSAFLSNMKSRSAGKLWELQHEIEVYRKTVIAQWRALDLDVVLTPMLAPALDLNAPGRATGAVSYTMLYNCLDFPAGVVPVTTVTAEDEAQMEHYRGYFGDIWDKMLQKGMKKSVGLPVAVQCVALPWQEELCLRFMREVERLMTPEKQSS

FAAH [5] = molecular target: T1, FAAH; type: cell-based; settings: 100 nM
SHR and WKY rats [6] = assay: plasma norepinephrine; type: in vivo, rat; settings: 1 mg/kg i.v.
SHR and WKY rats [7] = assay: mean arterial pressure and heart rate in anesthetized rats; type: in vivo, rat; settings: 1 mg/kg i.v.
SHR [8] = assay: cardiovascular effects under ganglionic blockade; settings: 1 mg/kg, hexamethonium + vasopressin + isoproterenol
Mouse hepatocytes = assay: drug levels in hepatocyte suspensions by LC/MS/MS
CB2 receptors = molecular target: T3, CB2 receptors (Rattus norvegicus, UniProt Q9QZN9); assay: radioligand displacement, [3H]CP,55940, rat spleen membranes
T3 sequence (Q9QZN9 1-360): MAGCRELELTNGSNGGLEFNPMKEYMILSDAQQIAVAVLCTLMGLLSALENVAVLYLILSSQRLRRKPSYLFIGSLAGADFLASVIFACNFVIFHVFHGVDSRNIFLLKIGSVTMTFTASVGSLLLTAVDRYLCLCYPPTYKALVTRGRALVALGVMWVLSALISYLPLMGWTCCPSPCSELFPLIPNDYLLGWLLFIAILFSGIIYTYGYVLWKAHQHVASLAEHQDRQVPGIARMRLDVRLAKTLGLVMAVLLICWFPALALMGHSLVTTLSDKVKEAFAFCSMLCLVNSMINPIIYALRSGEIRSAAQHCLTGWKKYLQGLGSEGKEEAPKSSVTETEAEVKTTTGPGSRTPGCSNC

FAAH [9] = molecular target: T1, FAAH; assay: FAAH activity in brain and liver homogenates, drug added in vitro; type: biochemical; settings: 100 nM added in vitro, brain and liver homogenates
[10] = system: mice with diet-induced obesity; assay: intraperitoneal glucose tolerance test in mice on high-fat diet; type: in vivo, mouse; settings: male DIO mice
[11] = system: [3H]anandamide uptake by cultured CCF-STTG1 astrocytoma cells; assay: anandamide transport assay; settings: concentrations up to 20 μmol/L
SHR and WKY rats [12] = assay: non-fasting blood glucose in rats; settings: 1 mg/kg i.p.
SHR [13] = assay: mean arterial pressure and heart rate in chronically cannulated conscious SHR; type: in vivo, rat; settings: 0.5 mg/kg i.v.

O=S(=O)(F)CCCCCc1ccc(O)cc1 [AM3506, 5-(4-hydroxyphenyl)pentanesulfonyl fluoride]
cardiac contractility (ESPVR) (SHR and WKY rats [1]; SHR): marked decrease
cardiac output (CO) (SHR and WKY rats [1]; SHR): decreases
dP/dtmax (SHR and WKY rats [1]; SHR): decreases
left ventricular end-systolic pressure (LVESP) (SHR and WKY rats [1]; SHR): decreases
LVESP, dP/dtmax, TPR and CO (SHR and WKY rats [1]; normotensive WKY): No changes
brain 2-AG levels [2]: remained unaffected
brain anandamide levels [2]: parallel increases
ID50, inhibition of brain FAAH activity (FAAH [3]; mouse brain, ex vivo): 0.10 mg/kg
FAAH inhibitory activity in liver (FAAH [3]; mouse liver, doses up to 1 mg/kg): devoid of substantial FAAH inhibitory activity
suppression of FAAH activity in brain (FAAH [3]; oral, 1 mg/kg, brain): 90±0.4%
suppression of hepatic FAAH activity (FAAH [3]; oral, 1 mg/kg, liver): 13±2.6%
anandamide levels in hepatocytes [4]: remained unchanged
IC50 (human recombinant FAAH): 48 nM
FAAH activity in cells, dense hepatocyte suspension (FAAH [5]; 40 mg/mL): no measurable change
FAAH activity in cell pellet, dilute hepatocyte suspension (FAAH [5]; 30 min, 1 mg wet cell weight/mL): nearly completely blocked
plasma norepinephrine after treatment (SHR and WKY rats [6]; WKY, baseline 198±11, remained unaffected): 167 ± 35 pg/mL
reduction of plasma norepinephrine (SHR and WKY rats [6]; anesthetized SHR, 30 min): 82±5%
plasma norepinephrine after treatment (SHR and WKY rats [6]; anesthetized SHR, 30 min, […]): 53 ± 12 pg/mL
effect on HR (SHR and WKY rats [7]; SHR): marked bradycardia
effect on MAP (SHR and WKY rats [7]; SHR): profound and sustained decrease
effect on MAP and HR (SHR and WKY rats [7]; WKY): only slight changes
reduction of the bradycardia elicited by AM3506 under ganglionic blockade (SHR [8]): 74.0±7.7%
reduction of the hypotension elicited by AM3506 under ganglionic blockade (SHR [8]): 89.6±3.6%
recovery of drug from cell-free medium (Mouse hepatocytes; 0 to 30 min, no hepatocytes): remained constant
drug level in cell pellets, dense hepatocyte suspension (Mouse hepatocytes; 100 nM, 40 mg/mL): below threshold
drug level in medium, dense hepatocyte suspension (Mouse hepatocytes; 100 nM, 40 mg/mL): rapidly depleted from the medium
free drug (parent ion) still present in cell-free supernatant (Mouse hepatocytes; dilute hepatocyte suspension 1 mg/mL, 100 nM, 10 min, % of drug added at 0 min): 50–55%
Ki (CB2 receptors): 192 nM
FAAH activity in tissue homogenates (FAAH [9]): equally effective in blocking FAAH activity in brain and liver
effect on glucose tolerance ([10]; 1 mg/kg): did not affect glucose tolerance
ipGTT area under the curve (AUC) ([10]; 1 mg/kg i.p. 60 min before glucose, vehicle 352±28): 411 ± 35 mg·h/dL
effect on anandamide transport [11]: did not affect
non-fasting blood glucose after treatment (SHR and WKY rats [12]; SHR, from 97.8±5.6): 96.8 ± 2.9 mg/dL
non-fasting blood glucose after treatment (SHR and WKY rats [12]; WKY, from 114.5±5.3): 108.2 ± 4.5 mg/dL
duration of MAP and HR effects (SHR [13]; awake SHR, n = 5): up to 60 minutes
MAP after treatment (SHR [13]; conscious SHR, from 176 ±4, n=4): 127±5 mmHg
HR after treatment (SHR [13]; conscious SHR, from 355±6, n=4): 286±22 bpm
duration of MAP and HR effects (SHR [13]; conscious SHR, n=4): up to an hour
